Experimental data taken from PMC8813803 (Clinical Pharmacokinetics, 2021).

Legend:
[1] = Clinical ADME study NCT03315559; assay type: in vivo; conditions: human; set from Fg 0.83 of clinical study 206764
[2] = system: liver uptake transporters; assay: Liver uptake transporter substrate status; assay type: in vitro ADME
[3] = human, cited from earlier work
[4] = in words; cited from earlier work
[5] = in words; cited from earlier work; remark: listed apart in the source
[6] = in words; cited from earlier work; remark: listed apart in the source

For `CC(C)N1CCN(Cc2cnc(-c3cc(-c4cccc5[nH]ccc45)cc4[nH]ncc34)o2)CC1` [nemiralisib, Nemiralisib], the “Intestinal FPE (first-pass extraction)” value [1] is listed as 17%, the “Substrate of liver uptake transporters” value [2] is listed as “not a substrate” and the “Fg (fraction escaping gut wall metabolism)” value ([3]; clinical study 206764 (NCT03315559)) is listed as 0.83. The “Volume of distribution at steady state” value ([3]; intravenous dosing) was “approximately 10 L/kg”, the “tmax (time of maximum plasma concentration)” value ([3]; oral dose) was 6 h and the Oral bioavailability [3] was 35%. The “Rat lung tissue binding” value [4] was “high”, the Permeability [5] was “high” and the Solubility [6] was “reasonable”.
